Laboratory results published in patent US6646003B2, “Method of treating ocular inflammatory and angiogenesis-related disorders of the posterior segment of the eye using an amide derivative of flurbiprofen or ketorolac” (Alcon, Inc., priority 2001, dated 2003).

How the values were obtained:
[1] = in vitro metabolism: hydrolytic conversion of NSAID amides to free carboxylic acids; assay type: in vitro ADME, NZA rabbit; details: rabbit iris/ciliary body, 36° C.; for hydrolytic bioactivation by the ICB (result in words): GBR buffer pH 7.6; for rate of drug hydrolysis by the ICB: GBR buffer pH 7.6, four to six hours
Protocol: Freshly dissected iris/ciliary body from the NZA rabbit was incubated at 36° C. for a period of four to six hours in 0.5 ml of GBR buffer (pH 7.6) supplemented with amide derivatives of the indicated NSAIDs. Samples of 0.1 ml were removed for HPLC analysis to monitor the hydrolytic conversion of NSAID amides to free carboxylic acids.

[2] = test system: paracentesis-induced breakdown of the BAB; assay: inhibition of trauma-induced ocular inflammation (rabbit model of paracentesis); assay type: in vivo; details: for topical ocular in vivo antiinflammatory activity (result in words): 0.1% topical ocular dose, rabbit paracentesis model; for inhibition of paracentesis-induced breakdown of the BAB: single 50 μL topical ocular drop of 0.1% solution/suspension 45 minutes prior to paracentesis, rabbit
Protocol: Effects of a single prophylactic topical ocular dose of the tested compounds were examined in a rabbit model of paracentesis (Graff, et al., Ocular Immunol. Inflamm., 6:227-238 (1998)). Briefly, a single 50 μL drop of a 0.1% drug solution/suspension was administered topically onto the eye 45 minutes prior to paracentesis and removal of ˜150 μL of aqueous humor. Thirty minutes after execution of paracentesis aqueous humor was removed (˜100 μL) for analysis. Both pre- and post-paracentesis samples were assayed for protein and PGE2 content.

[3] = in vitro corneal drug permeation (perfusion chamber, HPLC); assay type: in vitro ADME, NZA rabbits; details: continued drug perfusion of the corneal epithelium, excised rabbit cornea, GBR buffer
Protocol: Freshly excised corneas were obtained from 6-week old NZA rabbits (1.3-1.5 kg). Corneas were mounted in a modified Lucite perfusion chamber and perfused with glutathione-supplemented bicarbonated Ringer (GBR) buffer as previously described^1. Drug concentrations in GBR buffer were as indicated (FIG. 1), with the corneal epithelial cell layer facing the drug containing donor compartment. The final volume of the donor and receiver side of the perfusion chamber was 7.0 mL. Samples of 0.1 mL were withdrawn from both chambers at the beginning of the experiment and at 20 to 30 minute intervals thereafter through six hours. Samples were mixed with an equal volume of methanol and immediately subjected to HPLC analysis. HPLC analysis was carried out on a 25 cm×4.6 mm I.D. Spherosorb RP-18, 10μ column at a flow rate of 2.0 ml/min. The column effluent was monitored with a flow monitor at a wavelength of 230 nm. Elution of NSAID free acids and amides was accomplished with an eluant mixture composed of methanol:water:phosphoric acid (60/40/1 (v/v/v)) (pH 3.0). The eluant mixture was changed to methanol:water:phosphoric acid (60/40/1 (v/v/v)) (pH 3.0) when suprofen and suprofen amide were subjected to HPLC analysis.

| SMILES | hydrolytic bioactivation by the ICB (result in words) [1] | rate of drug hydrolysis by the ICB [1] [nM/min/mg tissue] | inhibition of paracentesis-induced breakdown of the BAB [2] [%] | also measured |
| --- | --- | --- | --- | --- |
| CC(C(=O)O)c1ccc(-c2ccccc2)c(F)c1 (stereo not drawn) [flurbiprofen] |  |  | 50 |  |
| NC(=O)C1CCn2c(C(=O)c3ccccc3)ccc21 (stereo not drawn) [amide derivative of ketorolac, 5-benzoyl-2,3-dihydro-1H-pyrrolizine-1-carboxamide] |  | 2.42 |  |  |
| CC(C(N)=O)c1ccc(-c2ccccc2)c(F)c1 (stereo not drawn) [amide derivative of flurbiprofen, 2-(3-fluoro-4-phenyl)-propionamide] |  | 0.29 | 29 |  |
| CC(C(N)=O)c1ccc(C(=O)c2cccs2)cc1 (stereo not drawn) [amide derivative of suprofen, α-methyl-4-(2-thienylcarbonyl)-benzeneacetamide] | resistant to hydrolytic bioactivation |  |  |  |

More lines, main results first:

| hydrolytic bioactivation by the ICB (result in words) [1] | rate of drug hydrolysis by the ICB [1] [nM/min/mg tissue] | SMILES | inhibition of paracentesis-induced breakdown of the BAB [2] [%] | also measured |
| --- | --- | --- | --- | --- |
| resistant to hydrolytic bioactivation |  | CN(C)C(=O)Cc1cccc(C(=O)c2ccc(Br)cc2)c1N [dimethyl amide derivative of bromfenac, N,N-dimethyl 2-amino-3-(4-bromobenzoyl)benzeneacetamide] |  | topical ocular in vivo antiinflammatory activity (result in words) [2]: no antiinflammatory effects were detectable |
|  | 0.17 | NC(=O)Cc1cccc(C(=O)c2ccc(Br)cc2)c1N [amide derivative of bromfenac] |  |  |
|  | 0.69 | NC(=O)Cc1cccc(C(=O)c2ccccc2)c1N [amide derivative of amfenac] | 64 | permeation coefficient [3]: 7.4 cm/min^−1×10^−5 |
| resistant to hydrolytic bioactivation |  | NC(=O)Cc1ccccc1Nc1c(Cl)cccc1Cl [amide derivative of diclofenac] |  | permeation coefficient [3]: 7.8 cm/min^−1×10^−5; topical ocular in vivo antiinflammatory activity (result in words) [2]: no antiinflammatory effects were detectable |
|  | 0.16 | CNC(=O)Cc1cccc(C(=O)c2ccc(Br)cc2)c1N [monomethyl amide derivative of bromfenac, N-methyl 2-amino-3-(4-bromobenzoyl)benzeneacetamide] |  |  |
